Results on 15 compounds are retold here after patent US12643903B2, “Bifunctional compounds for degradation of EGFR and related methods of use” (BeiGene, Ltd., priority 2020, dated 2026).

Assay [1] addresses T1, EGFR (Homo sapiens, UniProt P00533, DEL746-750).
T1 construct: endogenous in cells; host or cells: HCC827
The assay is described as follows: Cell Degradation 2: EGFR degradation in HCC827 cells, HTRF assay. The assay is classed as cell-based. The conditions noted are these: 16 h treatment, EGFR degradation by HTRF. On the procedure:
After 16 h treatment, add 100 μl 1×lysis buffer to each well; seal the plate and incubate 1 hour at room temperature on a plate shaker; Once the cells are lysed, 16 μl diluted (2 μL to 14 μl 1× lysisi buffer) cell lysate are transferred to a PE 384-well HTRF detection plate; 4 μL of pre-mixed HTRF antibodies are added to each well; Cover the plate with a plate sealer, spin 1000 rpm for 1 min, Incubate overnight at room temperature; Read on BMG PheraStar with HTRF protocol (337 nm-665 nm-620 nm).
(§1) The IC50 (DC50) value of a compound can be obtained by fitting the following equation Y=Bottom+(TOP−Bottom)/(1+((IC50/X)^hillslope))
(§2) Wherein, X and Y are known values, and IC50, Hillslope, Top and Bottom are the parameters obtained by fitting with software. Y is the inhibition percentage (calculated from the equation), X is the concentration of the compound; IC50 is the concentration of the compound when the 50% inhibition is reached. The smaller the IC50 value is, the stronger the inhibitory ability of the compound is. Vice versa, the higher the IC50 value is, the weaker the ability the inhibitory ability of the compound is; Hillslope represents the slope of the fitted curve, generally around 1*; Bottom represents the minimum value of the curve obtained by data fitting, which is generally 0%±20%; Top represents the maximum value of the curve obtained by data fitting, which is generally 100%±20%. The experimental data were fitted by calculating and analyzing with Dotmatics data analysis software.
For orientation: In TR-FRET formats the signal depends on donor and acceptor labels being close together.

Assay [2] deals with T2, EGFR (Homo sapiens, UniProt P00533, L858R/T790M).
T2 construct: endogenous in cells; host or cells: H1975
The assay is described as follows: Cell Degradation 1: EGFR degradation in H1975 cells, HTRF assay. Format: cell-based. The conditions noted are these: 16 h treatment, EGFR degradation by HTRF. On the procedure: After 16 h treatment, add 100 μl 1×lysis buffer to each well; seal the plate and incubate 1 hour at room temperature on a plate shaker; Once the cells are lysed, 16 μL of cell lysate are transferred to a PE 384-well HTRF detection plate; 4 μL of pre-mixed HTRF antibodies are added to each well; Cover the plate with a plate sealer, spin 1000 rpm for 1 min, Incubate overnight at room temperature; Read on BMG PheraStar with HTRF protocol (337 nm-665 nm-620 nm).
as §1, §2

The structures appear in SMILES notation. Bounds are passed on as bounds.

T2 sequence (P00533 25-1210 T790M/L858R): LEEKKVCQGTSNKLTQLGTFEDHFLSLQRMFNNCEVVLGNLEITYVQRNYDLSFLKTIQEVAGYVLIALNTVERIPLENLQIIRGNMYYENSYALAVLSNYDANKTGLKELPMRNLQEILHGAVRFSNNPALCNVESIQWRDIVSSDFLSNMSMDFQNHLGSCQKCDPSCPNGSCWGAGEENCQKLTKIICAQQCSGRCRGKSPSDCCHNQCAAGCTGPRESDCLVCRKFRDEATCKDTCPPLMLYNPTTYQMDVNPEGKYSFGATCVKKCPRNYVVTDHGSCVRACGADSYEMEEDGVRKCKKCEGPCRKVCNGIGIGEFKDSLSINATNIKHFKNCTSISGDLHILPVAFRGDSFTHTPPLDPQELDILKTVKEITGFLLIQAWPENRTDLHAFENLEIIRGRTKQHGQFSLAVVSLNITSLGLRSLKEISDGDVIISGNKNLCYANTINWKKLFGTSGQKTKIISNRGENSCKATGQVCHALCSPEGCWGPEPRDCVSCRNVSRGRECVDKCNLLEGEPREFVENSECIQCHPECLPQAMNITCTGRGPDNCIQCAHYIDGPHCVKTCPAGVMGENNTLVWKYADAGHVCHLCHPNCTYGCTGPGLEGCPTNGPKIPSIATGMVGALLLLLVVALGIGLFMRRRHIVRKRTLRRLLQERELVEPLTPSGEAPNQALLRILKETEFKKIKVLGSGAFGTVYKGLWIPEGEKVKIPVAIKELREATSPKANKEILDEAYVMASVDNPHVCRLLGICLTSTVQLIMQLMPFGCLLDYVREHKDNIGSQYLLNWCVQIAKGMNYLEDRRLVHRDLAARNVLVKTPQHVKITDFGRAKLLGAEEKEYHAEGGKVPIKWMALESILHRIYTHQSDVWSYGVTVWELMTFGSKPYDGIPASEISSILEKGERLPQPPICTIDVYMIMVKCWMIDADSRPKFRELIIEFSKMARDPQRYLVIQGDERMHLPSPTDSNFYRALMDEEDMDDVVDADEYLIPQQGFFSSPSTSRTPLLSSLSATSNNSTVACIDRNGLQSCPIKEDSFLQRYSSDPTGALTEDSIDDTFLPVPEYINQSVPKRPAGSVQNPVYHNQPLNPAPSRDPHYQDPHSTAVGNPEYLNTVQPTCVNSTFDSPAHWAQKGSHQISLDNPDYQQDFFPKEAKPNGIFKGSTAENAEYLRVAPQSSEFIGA
T1 sequence (P00533 with tags, fused parts or gaps DEL746-750): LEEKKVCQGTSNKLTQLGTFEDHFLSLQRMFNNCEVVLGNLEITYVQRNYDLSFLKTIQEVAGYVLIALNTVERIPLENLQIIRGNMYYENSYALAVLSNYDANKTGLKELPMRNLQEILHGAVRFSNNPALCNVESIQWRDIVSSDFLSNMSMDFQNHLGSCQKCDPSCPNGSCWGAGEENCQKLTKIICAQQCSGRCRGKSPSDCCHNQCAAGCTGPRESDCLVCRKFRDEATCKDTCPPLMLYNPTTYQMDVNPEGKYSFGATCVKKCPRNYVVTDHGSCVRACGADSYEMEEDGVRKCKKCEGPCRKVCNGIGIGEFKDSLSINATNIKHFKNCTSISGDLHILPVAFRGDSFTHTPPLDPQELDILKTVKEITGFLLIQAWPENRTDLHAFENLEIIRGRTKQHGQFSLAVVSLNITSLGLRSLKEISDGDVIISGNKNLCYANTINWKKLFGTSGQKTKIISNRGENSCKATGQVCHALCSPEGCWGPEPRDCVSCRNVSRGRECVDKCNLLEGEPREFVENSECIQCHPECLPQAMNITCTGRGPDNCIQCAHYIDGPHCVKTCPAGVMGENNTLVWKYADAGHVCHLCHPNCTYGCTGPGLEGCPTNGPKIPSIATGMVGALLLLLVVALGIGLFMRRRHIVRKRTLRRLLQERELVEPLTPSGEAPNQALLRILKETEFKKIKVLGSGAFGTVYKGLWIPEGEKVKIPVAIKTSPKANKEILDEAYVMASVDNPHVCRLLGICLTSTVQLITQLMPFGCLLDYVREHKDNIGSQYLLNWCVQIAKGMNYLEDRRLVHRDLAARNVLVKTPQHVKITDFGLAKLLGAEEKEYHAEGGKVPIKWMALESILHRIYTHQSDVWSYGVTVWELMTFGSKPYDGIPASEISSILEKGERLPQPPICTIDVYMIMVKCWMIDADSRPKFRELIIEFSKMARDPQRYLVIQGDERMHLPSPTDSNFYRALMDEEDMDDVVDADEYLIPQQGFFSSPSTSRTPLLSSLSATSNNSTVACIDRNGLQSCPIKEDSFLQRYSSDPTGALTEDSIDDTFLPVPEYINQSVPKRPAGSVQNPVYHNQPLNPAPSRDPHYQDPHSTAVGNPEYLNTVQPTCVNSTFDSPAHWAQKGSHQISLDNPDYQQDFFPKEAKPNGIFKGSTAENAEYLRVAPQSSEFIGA
T1 sequence (Q96SW2 whole entry partner): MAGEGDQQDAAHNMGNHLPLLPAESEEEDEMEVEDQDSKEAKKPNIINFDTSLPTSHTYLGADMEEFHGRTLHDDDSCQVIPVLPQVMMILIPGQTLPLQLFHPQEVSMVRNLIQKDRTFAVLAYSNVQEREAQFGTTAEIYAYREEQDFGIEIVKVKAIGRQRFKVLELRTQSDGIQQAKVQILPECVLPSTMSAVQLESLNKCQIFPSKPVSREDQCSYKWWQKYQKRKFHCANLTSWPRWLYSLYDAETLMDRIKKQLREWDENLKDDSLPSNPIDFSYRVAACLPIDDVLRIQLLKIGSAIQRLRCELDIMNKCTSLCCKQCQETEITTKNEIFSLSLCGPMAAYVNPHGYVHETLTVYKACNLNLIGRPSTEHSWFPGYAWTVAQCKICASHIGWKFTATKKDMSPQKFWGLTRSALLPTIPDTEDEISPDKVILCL

In the case of `CS(=O)(=O)N1CCc2cccc(Nc3nc(Nc4ccc(N5CCC(N6CCN(CCC7CCN(c8ccc(C9CCC(=O)NC9=O)c(F)c8)CC7)CC6)CC5)c(F)c4)nc4[nH]ccc34)c21` (stereo not drawn) [Example 9, 3-(2-fluoro-4-(4-(2-(4-(1-(2-fluoro-4-((4-((1-(methylsulfonyl)indolin-7-yl)amino)-7H-pyrrolo[2,3-d]pyrimidin-2-yl)amino)phenyl)piperidin-4-yl)piperazin-1-yl)ethyl)piperidin-1-yl)phenyl)piperidine-2,6-dione], the half-maximal degradation concentration (DC50) on EGFR [1] was 16.7 nM; on EGFR [2], 19.1 nM.

`CS(=O)(=O)N1CCc2cccc(Nc3nc(Nc4ccc(N5CCC(N6CCN(CC7CN(c8ccc9c(c8)CN(C8CCC(=O)NC8=O)C9=O)C7)CC6)CC5)c(F)c4)nc4[nH]ccc34)c21` (stereo not drawn) [Example 59, 3-(5-(3-((4-(1-(2-fluoro-4-((4-((1-(methylsulfonyl)indolin-7-yl)amino)-7H-pyrrolo[2,3-d]pyrimidin-2-yl)amino)phenyl)piperidin-4-yl)piperazin-1-yl)methyl)azetidin-1-yl)-1-oxoisoindolin-2-yl)piperidine-2,6-dione]: the DC50 came out at 3.1 nM on EGFR [1] and 2.7 nM on EGFR [2].

Regarding `CN(CCc1ccc(C2CCC(=O)NC2=O)c(F)c1)C1CCN(c2ccc(Nc3ncc(Cl)c(Nc4cccc5c4N(S(C)(=O)=O)CC5)n3)c3c2CCO3)CC1` (stereo not drawn) [Example 48, 3-(4-(2-((1-(7-((5-chloro-4-((1-(methylsulfonyl)indolin-7-yl)amino)pyrimidin-2-yl)amino)-2,3-dihydrobenzofuran-4-yl)piperidin-4-yl)(methyl)amino)ethyl)-2-fluorophenyl)piperidine-2,6-dione], the DC50 at EGFR [1] is 51.8 nM; on EGFR [2], greater than 10000 nM.

For `CS(=O)(=O)N1CCc2cccc(Nc3nc(Nc4ccc(N5CCC(N6CCN(C(=O)CC7CN(c8ccc9c(c8)C(=O)N(C8CCC(=O)NC8=O)C9=O)C7)CC6)CC5)c(F)c4)nc4[nH]ccc34)c21` (stereo not drawn) [Example 61, 2-(2,6-dioxopiperidin-3-yl)-5-(3-(2-(4-(1-(2-fluoro-4-((4-((1-(methylsulfonyl)indolin-7-yl)amino)-7H-pyrrolo[2,3-d]pyrimidin-2-yl)amino)phenyl)piperidin-4-yl)piperazin-1-yl)-2-oxoethyl)azetidin-1-yl)isoindoline-1,3-dione], the DC50 is 19.4 nM at EGFR [1] and 5.7 nM on EGFR [2].

`CS(=O)(=O)N1CCc2cccc(Nc3nc(Nc4ccc(N5CCC(N6CCN(CCC7CCN(c8ccc9c(c8)CN(C8CCC(=O)NC8=O)C9=O)CC7)CC6)CC5)c(F)c4)nc4[nH]ccc34)c21` (stereo not drawn) [Example 18, 3-(5-(4-(2-(4-(1-(2-fluoro-4-((4-((1-(methylsulfonyl)indolin-7-yl)amino)-7H-pyrrolo[2,3-d]pyrimidin-2-yl)amino)phenyl)piperidin-4-yl)piperazin-1-yl)ethyl)piperidin-1-yl)-1-oxoisoindolin-2-yl)piperidine-2,6-dione]: the DC50 turned out to be 10.8 nM at EGFR [1] and 14.1 nM on EGFR [2].

As for `CS(=O)(=O)N1CCc2cccc(Nc3nc(Nc4ccc(N5CCC(N6CCN(C(=O)C7CCN(CC8CCN(c9ccc%10c(c9)C(=O)N(C9CCC(=O)NC9=O)C%10=O)CC8)CC7)CC6)CC5)c(F)c4)nc4[nH]ccc34)c21` (stereo not drawn) [Example 14, 2-(2,6-dioxopiperidin-3-yl)-5-(4-((4-(4-(1-(2-fluoro-4-((4-((1-(methylsulfonyl)indolin-7-yl)amino)-7H-pyrrolo[2,3-d]pyrimidin-2-yl)amino)phenyl)piperidin-4-yl)piperazine-1-carbonyl)piperidin-1-yl)methyl)piperidin-1-yl)isoindoline-1,3-dione], the DC50 at EGFR [1] is 92.2 nM; at EGFR [2], 27.1 nM.

`CN(CCC1CCN(c2ccc(C3CCC(=O)NC3=O)c(F)c2)CC1)C1CCN(c2ccc(Nc3ncc(Cl)c(Nc4cccc5c4N(S(C)(=O)=O)CC5)n3)c3c2CCO3)CC1` (stereo not drawn) [Example 46, 3-(4-(4-(2-((1-(7-((5-chloro-4-((1-(methylsulfonyl)indolin-7-yl)amino)pyrimidin-2-yl)amino)-2,3-dihydrobenzofuran-4-yl)piperidin-4-yl)(methyl)amino)ethyl)piperidin-1-yl)-2-fluorophenyl)piperidine-2,6-dione]: the results for the DC50 at EGFR [1] and on EGFR [2] were 32.2 nM and 23.2 nM, respectively.

Turning to `COc1cc(N2CCC(N3CCN(CC4CCN(c5ccc(C6CCC(=O)NC6=O)cc5)CC4)CC3)CC2)c(C)cc1Nc1ncc(Br)c(Nc2cccc3c2N(S(C)(=O)=O)CC3)n1` (stereo not drawn) [Example 40, 3-(4-(4-((4-(1-(4-((5-bromo-4-((1-(methylsulfonyl)indolin-7-yl)amino)pyrimidin-2-yl)amino)-5-methoxy-2-methylphenyl)piperidin-4-yl)piperazin-1-yl)methyl)piperidin-1-yl)phenyl)piperidine-2,6-dione], the 50% degradation concentration (DC50) is 8.2 nM at EGFR [1] and 10.5 nM on EGFR [2].

Take `COc1cc(N2CCC(N3CCN(CCC4CCN(c5ccc(C6CCC(=O)NC6=O)cc5)CC4)CC3)CC2)c(C)cc1Nc1ncc(Br)c(Nc2cccc3c2N(S(C)(=O)=O)CC3)n1` (stereo not drawn) [Example 41, 3-(4-(4-(2-(4-(1-(4-((5-bromo-4-((1-(methylsulfonyl)indolin-7-yl)amino)pyrimidin-2-yl)amino)-5-methoxy-2-methylphenyl)piperidin-4-yl)piperazin-1-yl)ethyl)piperidin-1-yl)phenyl)piperidine-2,6-dione]: the DC50 on EGFR [1] stood at 16.7 nM; on EGFR [2], 20.7 nM.

Take `CS(=O)(=O)N1CCc2cccc(Nc3nc(Nc4ccc(N5CCC(N6CCN(CCC7CCN(c8ccc9c(c8)C(=O)N(C8CCC(=O)NC8=O)C9=O)CC7)CC6)CC5)c(F)c4)ncc3Cl)c21` (stereo not drawn) [Example 81, 5-(4-(2-(4-(1-(4-((5-chloro-4-((1-(methylsulfonyl)indolin-7-yl)amino)pyrimidin-2-yl)amino)-2-fluorophenyl)piperidin-4-yl)piperazin-1-yl)ethyl)piperidin-1-yl)-2-(2,6-dioxopiperidin-3-yl)isoindoline-1,3-dione]: the DC50 at EGFR [1] is 3.4 nM; at EGFR [2], 12.2 nM.

With `CN(CCC1CCN(c2ccc3c(c2)C(=O)N(C2CCC(=O)NC2=O)C3=O)CC1)C1CCN(c2ccc(Nc3ncc(Cl)c(Nc4cccc5c4N(S(C)(=O)=O)CC5)n3)c3c2CCO3)CC1` (stereo not drawn) [Example 47, 5-(4-(2-((1-(7-((5-chloro-4-((1-(methylsulfonyl)indolin-7-yl)amino)pyrimidin-2-yl)amino)-2,3-dihydrobenzofuran-4-yl)piperidin-4-yl)(methyl)amino)ethyl)piperidin-1-yl)-2-(2,6-dioxopiperidin-3-yl)isoindoline-1,3-dione], the results for the 50% degradation concentration (DC50) at EGFR [1] and at EGFR [2] were 13.8 nM and 21.4 nM, respectively.

`CS(=O)(=O)N1CCc2cccc(Nc3nc(Nc4ccc(N5CCC(N6CCN(CCOc7cccc8c7CN(C7CCC(=O)NC7=O)C8=O)CC6)CC5)c(F)c4)nc4[nH]ccc34)c21` (stereo not drawn) [Example 20, 3-(4-(2-(4-(1-(2-fluoro-4-((4-((1-(methylsulfonyl)indolin-7-yl)amino)-7H-pyrrolo[2,3-d]pyrimidin-2-yl)amino)phenyl)piperidin-4-yl)piperazin-1-yl)ethoxy)-1-oxoisoindolin-2-yl)piperidine-2,6-dione]: the half-maximal degradation concentration (DC50) on EGFR [1] amounted to 14.7 nM; on EGFR [2], 9.7 nM.

`CN(CCC1CCN(c2ccc(C3CCC(=O)NC3=O)cc2)CC1)C1CCN(c2ccc(Nc3ncc(Cl)c(Nc4cccc5c4N(S(C)(=O)=O)CC5)n3)c3c2CCO3)CC1` (stereo not drawn) [Example 49, 3-(4-(4-(2-((1-(7-((5-chloro-4-((1-(methylsulfonyl)indolin-7-yl)amino)pyrimidin-2-yl)amino)-2,3-dihydrobenzofuran-4-yl)piperidin-4-yl)(methyl)amino)ethyl)piperidin-1-yl)phenyl)piperidine-2,6-dione]: the figures for the DC50 on EGFR [1] and on EGFR [2] were 138 nM and greater than 10000 nM, respectively.

Regarding `CS(=O)(=O)N1CCc2cccc(Nc3nc(Nc4ccc(N5CCC(N6CCN(CCC7CCN(c8ccc9c(c8)C(=O)N(C8CCC(=O)NC8=O)C9=O)CC7)CC6)CC5)c5c4OCC5)ncc3Cl)c21` (stereo not drawn) [Example 52, 5-(4-(2-(4-(1-(7-((5-chloro-4-((1-(methylsulfonyl)indolin-7-yl)amino)pyrimidin-2-yl)amino)-2,3-dihydrobenzofuran-4-yl)piperidin-4-yl)piperazin-1-yl)ethyl)piperidin-1-yl)-2-(2,6-dioxopiperidin-3-yl)isoindoline-1,3-dione], the results for the DC50 on EGFR [1] and on EGFR [2] were 3.5 nM and 7 nM, respectively.

On to `CS(=O)(=O)N1CCc2cccc(Nc3nc(Nc4ccc(N5CCC(N6CCN(CCc7ccc(C8CCC(=O)NC8=O)c(F)c7F)CC6)CC5)c(F)c4)nc4[nH]ccc34)c21` (stereo not drawn) [Example 69, 3-(2,3-difluoro-4-(2-(4-(1-(2-fluoro-4-((4-((1-(methylsulfonyl)indolin-7-yl)amino)-7H-pyrrolo[2,3-d]pyrimidin-2-yl)amino)phenyl)piperidin-4-yl)piperazin-1-yl)ethyl)phenyl)piperidine-2,6-dione], for which the DC50 on EGFR [1] is 29.8 nM; at EGFR [2], 10.8 nM.

By DC50 is commonly meant the midpoint of the concentration-degradation curve. Higher therefore signals degradation only at high concentration.
